Laboratory results as given in patent US20090136968A1, “Novel in vitro methods for studying receptors recognizing volatile compounds” (Chemcom S. A., priority 2005, published 2009).

What was measured:
[1] = molecular target: T1, mOR-I7 (Mus musculus, UniProt Q9QWU6); settings: literature (references); cited from earlier work
T1 construct: expressed in transfected cells; host or cells: HEK 293T
T1 sequence (Q9QWU6 1-327): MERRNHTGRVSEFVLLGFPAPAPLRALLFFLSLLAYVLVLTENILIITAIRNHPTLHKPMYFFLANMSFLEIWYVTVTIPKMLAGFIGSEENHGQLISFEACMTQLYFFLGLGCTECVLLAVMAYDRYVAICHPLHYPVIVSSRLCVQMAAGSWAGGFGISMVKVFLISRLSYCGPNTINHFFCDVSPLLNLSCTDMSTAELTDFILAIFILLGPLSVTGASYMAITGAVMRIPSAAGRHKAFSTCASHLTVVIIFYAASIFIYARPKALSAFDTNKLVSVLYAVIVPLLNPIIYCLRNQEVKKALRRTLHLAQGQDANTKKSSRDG

[2] = molecular target: T1, mOR-I7; experiment: CCBSA single cell calcium imaging (Fluo4) on HEK 293T overexpressing mOR-I7; type: cell-based; settings: bovine olfactory mucus incubated with 16 μl of 1M octanal, 16 hours 4° C.; 20 cells
Description: FIG. 3: Development of a novel olfactory functional assay. (A) Scheme of the novel assay according to the present invention, CCBSA. See details in the text. (B) Application of CCBSA on a microplate format fluorescent cell-based assay. Increasing volume of octanal were incubated in CCBSA, and applied on HEK 293T cell line overexpressing or not mOR-I7. Calcium flux was followed with fluo4 as calcium tracer. (C) Application of CCBSA on single cell calcium imaging assay. Octanal was incubated in CCBSA and applied on HEK 293T overexpressing mOR-I7. Upper panel depicts kinetics of calcium flux followed with fluo4 as calcium tracer. Octanal-incubated bovine olfactory mucus was applied at 50 s and ATP as positive control was applied at 310 s. Forty X objective was used for this experiment. Middle panel show kinetics of 20 individual cells taken off the field represented in the upper panel. Finally, a representation of the average of the 20 traces is given in the lower panel.
To further validate this assay, single cell calcium imaging assays following the same approach were performed (FIG. 3C). Bovine olfactory mucus was incubated in the presence of 16 μl of a 1M octanal solution for 16 hours at 4° C. […]
This novel assay allows thus an efficient solubilization of odorant and greatly improves the efficacy of the molecule. […] Such disproportion has never been detected in a conventional assay. […]

[3] = molecular target: T1, mOR-I7; experiment: Novel olfactory functional assay (CCBSA), microplate calcium flux (Fluo4, FDSS) on HEK 293T overexpressing mOR-I7; type: cell-based; settings: for hit / potential ligand of mOR-I7 in screening of 30 odorants: carrier fraction 4 (bOBP and BSA) incubated with 16 μl of 1M odorant, ratio mOR-I7 on Wt, standardized to 1 mM ATP
Description: A solution of BP including SA, OBP and/or olfactory mucus (see concentration in the text) was incubated in the presence of odorant in a sealed flask for 16 hours at 4° C. (FIG. 3A). Such incubated-BP solution was then used as tested complex on olfactory receptor-expressing cells. Prior to incubation with such complex, cells were incubated for 1 hour with 4 μM Fluo4-AM (Molecular Probe) in the presence of 1 mM probenecid, and then rinsed twice with Fluo4-AM free HBSS buffer. After injection of odorant-BP complex on OR expressing cells, calcium flux was followed by measuring fluorescence at 520 nm ([…]) on FDSS, a plate reader from Hamamatsu Photonics K.K. (Japan) at 25° C.
In an attempt to be closer to physiological process of olfaction and thereof to increase specificity and sensitivity of the cell-based assay described above, a novel olfactory functional assay was developed. Most of the time, mammalian smells volatile odorant molecules. However in the cell-based assay described above as in most cell-based assays, odorant molecules were injected into aqueous buffer. Such injection may lead to formation of micelles that can alter efficacy and specificity of ligands. Therefore a cell-based assay was developed focusing an a better solubilization of odorants. In summary, in a sealed flask, bovine olfactory mucus was incubated in the presence of an odorant (FIG. 3A). It was hereby tested if an odorant would be trapped and solubilized in that fluid. Thereafter, such solubilized odorant was injected onto cultured-cells overexpressing an olfactory receptor. Activation of this receptor could then be followed by conventional assay including fluorescent (FIGS. 3 B and C) and luminescent calcium assays.
For this novel assay, mOR-I7 activation was assessed by octanal. A constant volume of olfactory mucus was incubated in the presence of increasing amount of octanal ranging from 0 to 16 μl of a solution of 1M octanal. After 16 hours incubation at 4° C., bovine olfactory mucus was injected on HEK 293T overexpressing mOR-I7. Calcium flux was followed with Fluo4 on FDSS, a plate reader from Hamamatsu Photonics K.K. (Japan).
Capacity of fraction 4 to fulfil the role of odorant solubilizator was assessed in the newly proposed assay. Screening of 30 odorant molecules (FIG. 5A) was performed on HEK 293T wild type (FIG. 5C) or overexpressing mOR-I7 (FIG. 5B). Fraction 4 was incubated overnight at 4° C. […] These odorants led to at least one fold more activation of HEK 293T overexpressing mOR-I7 than the wild type counterpart. They can be classified into two groups. One group (FIG. 5 E (a) to (e)) gathers molecules that fit the olfactophore 1 depicted in FIG. 5 E (j). They are schematically made of 2 electronegative poles distanced by 6 carbons. They all contain a 6-8 carbon chain ended by an electronegative group as depicted by olfactophore 2 represented in FIG. 5 E (k).
However this fraction 4 contained two major proteins, bOBP and BSA. Thus the results of said Example could in this approach not rule out any implication of BSA into fraction 4 properties. Therefore the capacity of BSA to solubilize and thereof to enhance the efficacy of odorants in the novel cell based olfactory functional assay as described by the present invention has been tested. To be as close as possible to BSA concentration observed in fraction 4. BSA concentration was set up at 5×10^−6 M for the following experiments (marked by an arrow on FIG. 6 G). Fraction 4 and a solution of fatty acid-free BSA were incubated at 4° C. for 16 hours in the presence of increasing volume of 1M octanal. So-incubated solutions were then applied onto HEK 293T wt or overexpressing mOR-I7. Calcium-flux was followed on a plate reader (Hamamatsu Photonics K.K., Japan) with fluo4 as fluorescent dye (FIG. 6 A to F). […] Such phenomenon is usually observed in such fluorescence assay when increasing ligand concentrations are injected. […]

[4] = fraction 4 or BSA solution incubated with increasing volume of 1M octanal

activation of cells overexpressing mOR-I7 (single cell fluorescence kinetics) [2]: activated | hits / potential ligands of mOR-I7 through the 4 screenings ([3]; BSA as carrier, calcium flux and cAMP screenings together): hits | ligands of mOR-I7 in two independent calcium flux screenings of 30 odorants ([3]; BSA as carrier, standardized to 100 μM ATP): consistent | fluorescence intensity (calcium flux) ([3]; bovine olfactory mucus incubated with 0 to 16 μl of 1M octanal, 16 hours 4° C.): proportional to the volume of odorant | hit / potential ligand of mOR-I7 in screening of 30 odorants [3]: potential ligands of mOR-I7 | hit / potential ligand of mOR-I7 in screening of 30 odorants ([3]; listed as 1-octanal): hits | calcium flux in HEK 293T overexpressing mOR-I7 ([3]; fraction 4 or BSA solution (5×10^−6 M) incubated with increasing volume of 1M octanal, kinetics over 300 seconds): calcium flux was detected | dependence of fluorescence intensity on amount of odorant [3, 4]: proportional to the amount of odorant | time required to reach maximum fluorescence [3, 4]: decreased when odorant volume increased
Compound: CCCCCCCC=O [octanal]
known activation of mOR-I7 [1]: activated specifically
